US10179770B2, “Quinolines derivatives as novel anticancer agents” (GENOSCIENCE PHARMA, priority 2013, dated 2019)

Tests used:
Type in all cases: cell-based
U937 = experiment: CellTiter-Glo cell viability assay (example 57); details: Homo sapiens, U-937; U937 (Leukemia); Cell Titer-Glo; 72 h
Description: (§1) The human breast cancer cell line SkBr3 and the human metastatic prostate carcinoma cell line LnCAP were cultured in Dulbecco's modified Eagle's medium (DMEM) supplemented with 10% fetal bovine serum (FBS) and 0.1% sodium pyruvate. The human myelocytic cell line U937 and NB4 were maintained in RPMI medium 1640 1× (Gibco 21875-034) supplemented with 10 % Fetal Bovine Serum (FBS, Eurobio S39130-0808) Kasumi and SKM-1 were maintained in RPMI medium 1640 1× (Gibco 21875-034) supplemented with 20 % Fetal Bovine Serum (FBS, Eurobio S39130-0808), HL60 was maintained in Iscove's modified Dulbecco's medium 1× (IMDM, Gibco 21890) supplemented with 20% Fetal Bovine Serum (FBS, Eurobio S39130-0808), cell line was maintained in MEM alpha medium (Gibco 22561-021) supplemented with 10% FBS at 37° C. with 5% CO2. Cell outgrowth was measured using the CellTiter-Glo luminescent cell viability assay as described by the manufacturer (Promega, Ref G7571 Madison, Wis., USA) using a FLUOstar optima luminometer (BMG Labtech, Ortenberg, Germany).
(§2) Briefly, for adherent cells, 10^4 cells were plated onto 96-well plates (white with clear bottom (3610, Corning Costar) in 100 μL of media per well and were allowed to grow overnight before the assay. For cells growing in suspension, 10^4 cells were plated onto 96-well plates immediately before the assay. […] Vehicle (DMSO) was used as a control, and all compounds were tested in a constant percentage of DMSO (1%). After addition of 50 μL of CellTiter GLO, luminescence was measured using a Centro luminometer (Berthold). EC50 values were determined as the dose of compound required to reduce luminescent values to 50% of the signal obtained for untreated cell cultures. All experiments were done in duplicate and repeated two independent times.

Kasumi-1 = experiment: CellTiter-Glo cell viability assay (example 57); details: Homo sapiens; Kasumi-1 (Leukemia); Cell Titer-Glo; 72 h
Description: as §1, §2

SkBr3 = experiment: CellTiter-Glo cell viability assay (example 57); details: Homo sapiens, SK-BR-3; SkBr3 (Breast); Cell Titer-Glo; 72 h
Description: as §1, §2

HL60 = experiment: CellTiter-Glo cell viability assay (example 57); details: Homo sapiens, HL-60; HL60 (Leukemia); Cell Titer-Glo; 72 h
Description: as §1, §2

SKM-1 = experiment: CellTiter-Glo cell viability assay (example 57); details: Homo sapiens; SKM-1 (Leukemia); Cell Titer-Glo; 72 h
Description: as §1, §2

NB4 = experiment: CellTiter-Glo cell viability assay (example 57); details: Homo sapiens, NB-4; NB4 (Leukemia); Cell Titer-Glo; 72 h
Description: as §1, §2

LNCaP = experiment: CellTiter-Glo cell viability assay (example 57); details: Homo sapiens; LNCaP (Prostate); Cell Titer-Glo; 72 h
Description: as §1, §2

RPMI-8226 = experiment: NCI-60 screen (SRB); details: RPMI-8226 (Leukemia)
Procedure, shortened: (§3)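 RPMI 1640/5% FBS/2 mM Gln; 24 h attach; Tz plates TCA-fixed at dosing; 5 conc. (10-fold or ½-log), 48 h, 37 °C, 5% CO2; SRB, A515; GI50/TGI/LC50 from Tz, C, Ti.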

OVCAR-4 = experiment: NCI-60 screen (SRB); details: OVCAR-4 (Ovarian)
Procedure, shortened: as §3

[1] = Homo sapiens, read-out: LC50 (the source's name)

CCN(CC)C1CCN(C(C)c2cc(-c3ccccc3)nc3ccccc23)CC1.Cl.Cl (stereo not drawn) [XIX-3, 2-phenyl-4-{1-[4-(N,N-diethylamino)piperidin-1-yl]-eth-1-yl}quinoline dihydrochloride]
EC50 (U937): 35 µM
EC50 (Kasumi-1): 30 µM
EC50 (SkBr3): 20 µM
EC50 (HL60): 40 µM
EC50 (SKM-1): 30 µM
EC50 (NB4): 37 µM
EC50 (LNCaP): 25 µM
GI50 (RPMI-8226; Homo sapiens): 2 µM
CC50 (RPMI-8226; [1]): 26 µM
TGI (RPMI-8226): 5 µM
Growth percent at 10 μM (RPMI-8226; 10 μM): ++++ (cell growth % < 20)
GI50 (OVCAR-4; Homo sapiens): 11 µM
CC50 (OVCAR-4; [1]): 52 µM
TGI (OVCAR-4): 24 µM
Growth percent at 10 μM (OVCAR-4; 10 μM): ++ (cell growth 40 > % < 60)
